Assay results reported in BindingDB's records for doi:10.1002/cbic.200800712 (University of Basel, 2009).
“And” between values parts separate entries of the source, which are not always exact repeats. Identical values can stand only once.

Legend:
Cytochrome P450 2A6 = biological target: T1, Cytochrome P450 2A6 (Homo sapiens, UniProt P11509); test: Inhibition Assay; settings: pH 7.6; 37 °C
T1 sequence (P11509 whole entry): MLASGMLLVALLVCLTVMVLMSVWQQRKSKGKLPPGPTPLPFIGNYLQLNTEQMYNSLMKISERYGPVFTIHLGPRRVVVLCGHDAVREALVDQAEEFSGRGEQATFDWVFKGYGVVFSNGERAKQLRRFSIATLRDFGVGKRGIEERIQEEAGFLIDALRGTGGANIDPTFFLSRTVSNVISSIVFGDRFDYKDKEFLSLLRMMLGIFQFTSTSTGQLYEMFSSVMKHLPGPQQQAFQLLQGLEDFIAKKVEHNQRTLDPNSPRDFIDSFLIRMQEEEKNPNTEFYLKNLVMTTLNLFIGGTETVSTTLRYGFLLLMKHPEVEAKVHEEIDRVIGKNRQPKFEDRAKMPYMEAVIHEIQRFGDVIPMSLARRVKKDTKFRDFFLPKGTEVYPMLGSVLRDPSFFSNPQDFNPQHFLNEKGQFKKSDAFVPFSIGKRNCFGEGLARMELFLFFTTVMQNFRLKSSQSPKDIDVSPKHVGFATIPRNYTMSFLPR
Excerpt: (§1) Inhibition assay using cytochrome P450 enzyme CYP2A6 and CYP2A13.

Cytochrome P450 2A13 = biological target: T2, Cytochrome P450 2A13 (Homo sapiens, UniProt Q16696); test: Inhibition Assay; settings: pH 7.6; 37 °C
T2 sequence (Q16696 whole entry): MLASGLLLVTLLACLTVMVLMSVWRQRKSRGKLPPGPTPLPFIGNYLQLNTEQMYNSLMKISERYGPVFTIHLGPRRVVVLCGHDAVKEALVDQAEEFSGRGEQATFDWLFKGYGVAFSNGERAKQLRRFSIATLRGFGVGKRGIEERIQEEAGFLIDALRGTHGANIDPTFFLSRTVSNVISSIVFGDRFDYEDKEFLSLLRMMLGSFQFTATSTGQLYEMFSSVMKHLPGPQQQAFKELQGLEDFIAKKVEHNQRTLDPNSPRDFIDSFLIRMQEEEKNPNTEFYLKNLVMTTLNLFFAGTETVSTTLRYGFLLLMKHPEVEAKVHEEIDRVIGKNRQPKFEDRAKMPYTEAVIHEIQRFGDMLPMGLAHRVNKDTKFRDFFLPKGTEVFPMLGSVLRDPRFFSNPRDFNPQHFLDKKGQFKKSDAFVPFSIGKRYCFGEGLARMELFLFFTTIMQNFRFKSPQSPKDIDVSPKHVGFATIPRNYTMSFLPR
Excerpt: as §1

Row | IC50 (Cytochrome P450 2A6) | IC50 (Cytochrome P450 2A13) | Structure (SMILES)
1 | 54 µM | 148 µM | c1cn(CC2CC2)cn1
2 | 178 µM | 82 µM | O=C(O)CCCCn1ccnc1
3 | > 300 µM | > 300 µM | CCCn1ccnc1 [1-Subsituted 1H-imidazole, 1]
4 | 8.6 µM | 44 µM | CCCCn1ccnc1 [1-Subsituted 1H-imidazole, 2]
5 | 2.1 µM | 4.3 µM | CCCCCn1ccnc1 [1-Subsituted 1H-imidazole, 3]
6 | 2.7 µM |  | CCCCCCn1ccnc1 [1-Subsituted 1H-imidazole, 4]
7 | 11 µM | 3.1 µM | CCCCCCCn1ccnc1 [1-Subsituted 1H-imidazole, 5]
8 | 3.1 µM |  | CC(C)CCn1ccnc1 [1-Subsituted 1H-imidazole, 7]
9 | 7.7 µM |  | CC(C)=CCn1ccnc1 [1-Subsituted 1H-imidazole, 9]
10 | 6.7 µM | 11.4 µM | CC/C=C/Cn1ccnc1 [1-Subsituted 1H-imidazole, 10]
11 | 7.1 µM and 11.5 µM | 5.5 µM | CC/C=C/CCn1ccnc1 [1-Subsituted 1H-imidazole, 12]
12 | 1.4 µM | 2.4 µM | C=CCCCCn1ccnc1 [1-Subsituted 1H-imidazole, 13]
13 | 5.7 µM | 5.7 µM | CC(C)=CCC/C(C)=C\Cn1ccnc1 [1-Subsituted 1H-imidazole, 14]
14 | 64 µM | 235 µM | CC#CCn1ccnc1 [1-Subsituted 1H-imidazole, 15]
15 | > 300 µM | 238 µM | CCOC(=O)CCn1ccnc1 [1-Subsituted 1H-imidazole, 17]
16 | > 300 µM | 123 µM | CCOC(=O)CCCn1ccnc1 [1-Subsituted 1H-imidazole, 18]
17 | > 300 µM | > 300 µM | OCCCCn1ccnc1 [1-Subsituted 1H-imidazole, 19]
18 | 122 µM | > 300 µM | OCCCCCn1ccnc1 [1-Subsituted 1H-imidazole, 20]
19 | 22.4 µM | 19.1 µM | N#CCCCCn1ccnc1 [1-Subsituted 1H-imidazole, 22]
20 | > 300 µM | > 300 µM | C=Cn1ccnc1 [1-ethenyl-1H-imidazole]
21 | > 300 µM | 247 µM | CC(C)=CCCC(C)Cc1ncc[nH]1 (centres undefined) [2-Subsituted 1H-imidazole, 26]
22 | > 300 µM | 277 µM | CCCCCCCCCc1ncc[nH]1 [2-Subsituted 1H-imidazole, 27]
23 | > 300 µM | 143 µM | CC/C=C/Cc1ncc[nH]1 [2-Subsituted 1H-imidazole, 28]
24 | 302 µM | 49 µM | COc1ccc(-c2ncco2)cc1 [2-Subsituted oxazole, 29]
25 | > 300 µM | > 300 µM | CCCCCCCCCc1ncco1 [2-Subsituted oxazole, 30]
26 | > 300 µM | > 300 µM | COc1ccc(C2=NCCO2)cc1 [2-Subsituted oxazoline, 31]
